The molecules below were run against T1, Acetylcholinesterase (Rattus norvegicus, UniProt P37136).
T1 sequence (P37136 whole entry): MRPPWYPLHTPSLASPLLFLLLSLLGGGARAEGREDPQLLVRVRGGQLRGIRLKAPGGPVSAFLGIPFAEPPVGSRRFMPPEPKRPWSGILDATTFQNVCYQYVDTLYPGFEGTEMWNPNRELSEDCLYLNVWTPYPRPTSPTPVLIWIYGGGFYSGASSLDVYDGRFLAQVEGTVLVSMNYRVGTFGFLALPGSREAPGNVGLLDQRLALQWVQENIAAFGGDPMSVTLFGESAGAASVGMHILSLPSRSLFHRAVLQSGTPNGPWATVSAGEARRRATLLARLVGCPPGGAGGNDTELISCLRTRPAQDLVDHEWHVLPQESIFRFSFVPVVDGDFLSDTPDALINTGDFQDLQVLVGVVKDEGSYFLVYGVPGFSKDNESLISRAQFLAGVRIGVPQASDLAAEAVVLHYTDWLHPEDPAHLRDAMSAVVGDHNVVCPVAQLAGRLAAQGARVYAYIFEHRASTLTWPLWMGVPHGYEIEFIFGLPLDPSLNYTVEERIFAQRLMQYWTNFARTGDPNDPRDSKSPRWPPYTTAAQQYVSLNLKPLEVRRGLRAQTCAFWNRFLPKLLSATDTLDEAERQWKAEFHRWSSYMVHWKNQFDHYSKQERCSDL
Description: In vitro inhibitory effect on rat Acetylcholinesterase
`CN(CCOCC/N=C(\S)Nc1cccnc1)Cc1ccccc1` showed an IC50 of 4000 nM.
With `COc1ccc(C(=O)NC(=S)NCCOCCN(C)Cc2ccccc2)cc1` the IC50 was 26 nM.
In the case of `CN(CCOCCNC(=S)NC(=O)c1ccc(Cl)c(Cl)c1)Cc1ccccc1`, the IC50 is reported as 55 nM.
With `CN(CCOCCCNC(=S)NC(=O)c1ccccc1)Cc1ccccc1` the IC50 was 1100 nM.
`COc1ccc(NC(=S)NCCOCCN(C)Cc2cccc([N+](=O)[O-])c2)cc1OC` showed an IC50 of 1500 nM.
For `CN(CCOCCNC(=S)NC1CCCCC1)Cc1ccccc1`, the IC50 was 1400 nM.
In the case of `CN(CCOCCNC(=S)NC(=O)C1=CC2C(=O)c3ccccc3C(=O)C2C=C1)Cc1ccccc1` (configuration not stated), the IC50 is reported as 6 nM.
For `CN(CCOCCNC(=S)Nc1ccc(OC(F)(F)F)cc1)Cc1ccccc1`, the IC50 was 1000 nM.
For `CN(CCOCCNC(=S)NC(=O)c1ccccc1)C1CCCCC1`, the IC50 was 13 nM.
Work on `CN(CCOCCNC(=S)Nc1cccc2ccccc12)Cc1ccccc1` yielded an IC50 greater than 10000 nM.
In the case of `CN(CCOCCNC(S)=NC(=O)c1cccc([N+](=O)[O-])c1)Cc1ccccc1`, the IC50 is reported as 15 nM.
With `CN(CCOCCNC(=S)NC(=O)c1ccc2c(c1)-c1ccccc1C2=O)Cc1ccccc1` the IC50 was 30 nM.
Molecule `CCN(CCOCCNC(=O)NCc1ccccc1)CC1CCCCC1` has an IC50 greater than 10000 nM.
`CN(CCOCCNC(=S)NC(=O)c1ccccc1)Cc1ccccc1` showed an IC50 of 120 nM.
`CN(CCOCCNC(=S)NC(=O)c1ccc(-c2ccccc2)cc1)Cc1ccccc1` gave an IC50 of 230 nM.
For `Cc1ccc(C(=O)NC(=S)NCCOCCN(C)Cc2ccccc2)cc1`, the IC50 was 77 nM.
For `CN(CCOCCNC(=O)Nc1ccc([N+](=O)[O-])cc1)Cc1ccccc1`, the IC50 was 2300 nM.

— ChEMBL document CHEMBL1128491, “Flexible 1-[(2-aminoethoxy)alkyl]-3-ar(o)yl(thio)ureas as novel acetylcholinesterase inhibitors. Synthesis and biochemical evaluation” (J Med Chem, 1995)
